Assay results reported in US20150079029A1, “METHODS AND COMPOSITIONS FOR INHIBITING ANGIOGENESIS” (Oncology Research International Limited, priority 2006, published 2015).

Columns and labels:
aortic explants = experiment: Vessel growth (sprouts and branches) from mouse aortic explants in collagen gel; type: cell-based, C57BL6/J mice; conditions: for Branches Mean / Sprouts Mean: 1 μL/mL DMSO, 6 days culture, 8 replicates
Method: Three male C57BL6/J mice (9 weeks old) were sacrificed by CO2 asphyxiation and the blood harvested by heart puncture using a 29 gauge needle. The aorta was then dissected (from the aortic arch to the pleural/peritoneal interface) and placed in ice-cold DMEM supplemented with 10 mM Hepes and penicillin/streptomycin.
The fibrous and adipose tissues surrounding the aorta were removed by microscopic dissection and the aorta flushed of blood using ice cold DMEM. The aorta was then longitudinally bisected and cut into approximately 1 mm squares. Individual pieces of aorta were embedded in a drop (20 μL) of collagen solution in the bottom of a well of a 24 well tissue culture plate. The plates were then placed at 37° C./5% CO2 for 10 minutes to polymerise the collagen into a gel. Media (0.3 mL) alone, containing DMSO or deltonin in DMSO was then added to each well to form a moat around the collagen gel.
Only the central 8 wells of each 24 well plate were used for explant cultures to avoid differential gaseous exchange and evaporation rates between explant sample wells. The outer wells were filled with PBS.
Nine groups of 8 replicates each were tested:
The explants were then cultured at 37° C./5% CO2 in a humid incubator for 6 days. Explants were fixed at room temperature for 20 minutes by adding an equal volume (0.3 mL) of 4% paraformaldehyde in PBS to each well. After washing three times with HEPES-buffered saline (HBS, 150 mM NaCl, 10 mM HEPES) the explants were stained with 10 μg/ml FITC-BS-1 lectin conjugate (BS-1 lectin specifically binds mouse endothelial cells) in HBS overnight at 4° C. The following day the explants were washed three times with HBS. Vessel outgrowths from explants were visualised by fluorescence microscopy and photographs taken for data analysis. Multiple multidepth focus fluorescent images were photographed for each explant and the photographs processed using deconvolution software so that total vessel outgrowth for each explant could be determined Total cellular growth associated with each explant was also visualised by light microscopy using a dissecting microscope and documented by photography. For ease of visualisation and analysis a composite inverted black and white image was prepared from the multiple fluorescent images of the vessel outgrowths for each explant. The number of vessel sprouts and the number of vessel branches for each explant was then counted with the person counting being blinded to the identity of each sample. The results are summarised in Table 4, and shown graphically in FIG. 1.

[1] = system: angiogenesis induced by bFGF in angiosponges; experiment: AngioSponge assay: bFGF-induced neovascularisation of implanted gelfoam, CD31 staining; type: in vivo, C3H/Hej mice; conditions: i.p. once daily for 10 days, dioscin 10, deltonin 10, trillin 60, prosapogenin A 20, sorafenib 60 mg/kg; for Average number of blood vessels (CD31 counts): sponges excised Day 11
Description: The AngioSponge™ assay enables slow release of agarose-captured growth factor, which stimulates endothelial cell proliferation and migration, and provides a tissue-like matrix for neovascularisation. The assay can be therefore be used to gauge the efficacy of treatments designed to inhibit angiogenesis, determined by counting blood vessels after CD31 immunohistochemical staining of endothelial cells (McCarty et al, International Journal of Oncology, 21:5-10, 2002).
Gelfoams (Pharmacia & Upjohn) were cut into approximately 7×7×7 mm pieces, under sterile conditions, and pre-soaked over night with sterile phosphate buffered saline. The hydrated gelfoams were then partially dried. Growth factor (bFGF) was diluted to an initial concentration of 2 μg/mL in warm (37° C.) 0.4% agarose. The partially dried gelfoams were placed in the growth factor solution, or in warm 0.4% agarose without growth factor, and then transferred to a Petri dish containing warm 0.4% agarose (1:1 dilution, final growth factor concentration 1 μg/mL) for polymerisation and solidification.
70 female C3H/Hej mice were microchipped, weighed and randomised based on body weight into 7 groups with 10 mice per group. For implantation, the mice were anaesthetised by halothane inhalation. A small channel forged with a trocar needle between the 3rd and 4th mammary gland, the sponge was inserted to the full depth of the channel and the incision closed with a wound clip.
The compounds were formulated in N-methylpyrrolidone (NMP):PEG300:Water (1:9:10, v/v). Dosing was established on the basis of in vitro IC50 data and preliminary toxicity studies. Compounds were administered daily by intraperitoneal injection, at a dosing volume of 10 mL/kg, once daily for the study period as shown in Table 5.
Treatment was started when all the animals had recovered fully from anaesthesia, and continued for 10 days. On Day 11, the angiosponges were excised and snap frozen in liquid nitrogen with OCT for CD31 staining on frozen sections.
CD31/PECAM-1 is an antigen present specifically on endothelial cells and can therefore be used as a marker for blood vessels. Frozen samples of the sponge were cryo-sectioned (12 μm), mounted on positively-charged Plus slides (Fisher Scientific), and air-dried for 30 minutes. Frozen sections were in turn fixed in cold acetone, acetone/chloroform (1:1, v/v), and acetone for 5 min each, and then washed with PBS (phosphate buffer saline). After blocking with PBS containing 5% normal horse serum and 1% normal goat serum, sections were incubated with PECAM-1 monoclonal rat anti-mouse CD31 antibody (1:5000 in blocking solution, PharMingen, San Diego, Calif.) for 4 hours at room temperature. The slides were then washed three times with PBS and incubated with adequate secondary anti-rat antibody. Positive reactions were visualized by incubating the slides in stable 3,3′-diaminobenzidine for 5-10 min. The sections were rinsed with distilled water, counter-stained with Gill's haematoxylin for 1 min, and mounted with Universal Mount (Research Genetics). […] Mouse placenta was used as a positive control. For quantification, 3 independent visual fields were chosen and positive stained spots or vessels with lumen were counted.
The Percent Induction for a treatment is the difference in CD31 counts between the treatment (+bFGF) and the vehicle alone (no bFGF), divided by the difference in CD31 counts between the vehicle with bFGF and the vehicle alone (no bFGF), expressed as a percentage.

[2] = system: angiogenesis induced by bFGF in angiochambers; experiment: AngioChamber assay: bFGF-induced fibrous capsule formation and haemoglobin (Drabkin) blood content; type: in vivo, FvB mice; conditions: i.p. once daily for 5 days, dioscin 10, deltonin 10, trillin 60, prosapogenin A 20, sorafenib 60 mg/kg; for Average blood content (from haemoglobin content): Drabkin assay; for Average chamber weight: wet weight on Day 6
Description: The AngioChamber™ assay utilises the normal physiological process of wound healing, which promotes the formation of a fibrous capsule around an implanted chamber (Wood et al, (2000) Cancer Research, 60(8):2178-89). The inclusion of bFGF in the chamber induces blood vessel development in the fibrous capsule. The assay therefore assesses the efficacy of treatments by gauging their effect both on the fibrous capsule formation, measured by the wet weight of the capsule at the termination of the study and by determination of blood vessel supply to the chamber by assaying for haemoglobin content. The haemoglobin content of the fibrous capsule is a measure of neovascularisation, which is assayed by the Drabkin Assay.
The angiochambers were porous tissue chambers made of perfluoro-alkoxy-Teflon and filled with 0.8% agar containing 20 IU/mL heparin, with or without 1 μg/mL human bFGF. Both ends of the chamber were sealed with removable caps of the same material. The chambers were filled under sterile conditions with 0.8% agar containing 20 IU/mL heparin, with or without 1 μg/mL human bFGF. The agarose solution was maintained at 37° C. prior to filling the chambers.
70 female FvB mice were microchipped, weighed and randomised based on body weight into 7 groups with 10 mice per group. For implantation, the mice were anaesthetised by halothane inhalation. Approximately 150 μL sterile filtered air was injected subcutaneously in the back of each mouse, between the shoulder blades, resulting in an air pocket in which a small incision was made and the chamber inserted. The wound was closed with two 1.4 mm wound clips.
The treatments, which were all formulated in NMP:PEG300:Water (1:9:10, v/v) and administered daily by intraperitoneal injection, were as given in the Table 7:
Treatment was started when all the animals had recovered fully from anaesthesia, and continued for 5 days. On Day 6, the vascularised fibrous chambers were removed and the wet weight recorded for each implant. The chamber from each mouse was then snap frozen with liquid nitrogen and stored at −20° C. until assessed for haemoglobin content.
The fibrous capsule samples were thawed and kept on ice during the procedure. Sterile water was added to each thawed sample, and the sample homogenised with an UltraTourax at high speed. To avoid cross-contamination, the UltraTourax was flushed for 30 seconds with 5 mL distilled water after homogenising each sample. The homogenate was transferred into 2 mL Eppendorf tubes and stored on ice. The Eppendorf tubes were centrifuged at 4° C. and high speed (14,000 relative centrifugal force (RCF)) for 60 min. 1.0-1.5 mL of the intermediate aqueous solution (homogenate), between the pellet and the fat layer, was then transferred to fresh labelled 1.5 mL Eppendorf tubes and stored on ice. 50 μL of each homogenate was transferred into separate wells of a 96-well plate. 50 μL of water was transferred into 2 wells as blanks. 50 μL of Drabkin's reagent was then added to each well and mixed. After 15 min incubation at room temperature, the absorbance of each sample at 540 nm was measured and the volume of blood for each sample calculated from a standard curve.
The Percent Induction for a treatment is the difference in blood content between the treatment (+bFGF) and the vehicle alone (no bFGF), divided by the difference in blood content between the vehicle with bFGF and the vehicle alone (no bFGF), expressed as a percentage.

| Compound | Percent Induction (CD31 counts relative to vehicle + bFGF minus vehicle alone) [1] [%] | Average number of blood vessels (CD31 counts) [1] | Percent Induction (blood content relative to vehicle + bFGF minus vehicle alone) [2] [%] | Average blood content (from haemoglobin content) [2] [µL] | Average chamber weight [2] [g] | further results |
| --- | --- | --- | --- | --- | --- | --- |
| C[C@@H]1CC[C@@]2(OC1)O[C@H]1C[C@H]3[C@@H]4CC=C5C[C@@H](O[C@@H]6O[C@H](CO)[C@@H](O[C@@H]7O[C@H](CO)[C@@H](O)[C@H](O)[C@H]7O)[C@H](O)[C@H]6O[C@@H]6O[C@@H](C)[C@H](O)[C@@H](O)[C@H]6O)CC[C@]5(C)[C@H]4CC[C@]3(C)[C@H]1[C@@H]2C [Deltonin, diosgenin Rha2, [Glc4], Glc] | 61 | 44 | 20 | 0.79 | 0.126 | Branches Mean (aortic explants; 0.01 μM deltonin): 16; Sprouts Mean (aortic explants; 0.01 μM deltonin): 11; Branches Mean (aortic explants; 0.03 μM deltonin): 26; Sprouts Mean (aortic explants; 0.03 μM deltonin): 18; Branches Mean (aortic explants; 0.1 μM deltonin): 24; Sprouts Mean (aortic explants; 0.1 μM deltonin): 18; Branches Mean (aortic explants; 0.3 μM deltonin): 20; Sprouts Mean (aortic explants; 0.3 μM deltonin): 16; Branches Mean (aortic explants; 1 μM deltonin): 16; Sprouts Mean (aortic explants; 1 μM deltonin): 13; Branches Mean (aortic explants; 3 μM deltonin): 0; Sprouts Mean (aortic explants; 3 μM deltonin): 0; Branches Mean (aortic explants; 10 μM deltonin): 0; Sprouts Mean (aortic explants; 10 μM deltonin): 0; vessel branches from aortic explants in comparison to DMSO treated control explant cultures (aortic explants; at 10, 3 and 1 μM): significantly inhibited; vessel sprouts from aortic explants in comparison to DMSO treated control explant cultures (aortic explants; at 10 and 3 μM): significantly inhibited |
| C[C@@H]1CC[C@@]2(OC1)O[C@H]1C[C@H]3[C@@H]4CC=C5C[C@@H](O[C@@H]6O[C@H](CO)[C@@H](O[C@@H]7O[C@@H](C)[C@H](O)[C@@H](O)[C@H]7O)[C@H](O)[C@H]6O[C@@H]6O[C@@H](C)[C@H](O)[C@@H](O)[C@H]6O)CC[C@]5(C)[C@H]4CC[C@]3(C)[C@H]1[C@@H]2C [Dioscin, diosgenin Rha2, [Rha4], Glc] | 49 | 35 | 45 | 1.24 | 0.131 | – |
| C[C@@H]1CC[C@@]2(OC1)O[C@H]1C[C@H]3[C@@H]4CC=C5C[C@@H](O[C@@H]6O[C@H](CO)[C@@H](O)[C@H](O)[C@H]6O[C@@H]6O[C@@H](C)[C@H](O)[C@@H](O)[C@H]6O)CC[C@]5(C)[C@H]4CC[C@]3(C)[C@H]1[C@@H]2C [Prosapogenin A, diosgenin Rha2, Glc] | 29 | 21 | 84 | 1.92 | 0.389 | – |
| CNC(=O)c1cc(Oc2ccc(NC(=O)Nc3ccc(Cl)c(C(F)(F)F)c3)cc2)ccn1 [Sorafenib, reference compound] | 3 | 2 | 27 | 0.92 | 0.322 | – |
| C[C@@H]1CC[C@@]2(OC1)O[C@H]1C[C@H]3[C@@H]4CC=C5C[C@@H](O[C@@H]6O[C@H](CO)[C@@H](O)[C@H](O)[C@H]6O)CC[C@]5(C)[C@H]4CC[C@]3(C)[C@H]1[C@@H]2C [Trillin, diosgenin-Glc] | 57 | 41 | 58 | 1.46 | 0.421 | – |
